Measured values: US6358885B1, “Substituted phenylheterocyclic herbicides” (Mississippi State University, priority 1992, dated 2002)

Columns and labels:
lambsquarters = assay: Test B preemergence/postemergence greenhouse plant response rating 0 to 10; format: in vivo, Chenopodium album; details: for Plant response rating, Lambsquarter: 0 to 10 scale
In short: (§1)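 Test chemicals, dissolved in a non-phytotoxic solvent, were applied to soil at planting and, at the same time, over foliage of seedlings at the one to four leaf stage.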

giant foxtail = assay: Test C preemergence/postemergence greenhouse plant response rating 0 to 100; format: in vivo, Setaria faberii; details: for Plant response rating, Giant foxtail: 125 g/ha, 0 to 100 scale
In short: (§2)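 Compounds in non-phytotoxic solvent went onto sandy loam before emergence (seeded one day earlier) or onto plants at the one-to-four leaf stage. Duck salad was treated via flood water (~2.5 cm, maintained) over silt loam.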

rape = assay: as above; format: in vivo, Brassica napus; details: for Plant response rating, Rape: 125 g/ha, 0 to 100 scale
In short: as §2

rice = assay: Test C flood test plant response rating 0 to 100; format: in vivo, Oryza sativa
In short: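 Compounds in non-phytotoxic solvent applied preemergence to sandy loam one day after planting, postemergence at the 1–4 leaf stage, or to ~2.5 cm floodwater over silt loam.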

barley = assay: Test C preemergence/postemergence greenhouse plant response rating 0 to 100; format: in vivo, Hordeum vulgare; details: for Plant response rating Barley Igri: 125 g/ha, 0 to 100 scale
In short: as §2

soybean [1] = assay: Test B preemergence/postemergence greenhouse plant response rating 0 to 10; format: in vivo, Glycine max; details: for Plant response rating, Soybean: 0 to 10 scale
In short: as §1

soybean [2] = assay: Test C preemergence/postemergence greenhouse plant response rating 0 to 100; format: in vivo, Glycine max; details: for Plant response rating, Soybean: 125 g/ha, 0 to 100 scale
In short: as §2

sorghum = assay: as above; format: in vivo, Sorghum bicolor; details: for Plant response rating, Sorghum: 125 g/ha, 0 to 100 scale
In short: as §2

COCOc1cc(-c2nn3c(c2Cl)CCCC3)c(F)cc1Cl [Compound 58]
Plant response rating, Lambsquarter (lambsquarters; POSTEMERGENCE, Rate 50 g/ha): 10 | Plant response rating, Lambsquarter (lambsquarters; PREEMERGENCE, Rate 50 g/ha): 10 | Plant response rating (0 to 10 scale), Lambsquarter (lambsquarters; PREEMERGENCE, Rate 200 g/ha): 10 | Plant response rating, Lambsquarter (lambsquarters; Rate 200 g/ha, POSTEMERGENCE): 10 | Plant response rating, Giant foxtail (giant foxtail; POSTEMERGENCE): 100 | Plant response rating (0 to 100), Giant foxtail (giant foxtail; POSTEMERGENCE, Rate 2 g/ha): 20 | Plant response rating, Giant foxtail (giant foxtail; PREEMERGENCE): 100 | Plant response rating (0 to 100), Giant foxtail (giant foxtail; PREEMERGENCE, Rate 2 g/ha): 0 | Plant response rating (0 to 100), Giant foxtail (giant foxtail; Rate 8 g/ha, POSTEMERGENCE): 40 | Plant response rating (0 to 100), Giant foxtail (giant foxtail; Rate 8 g/ha, PREEMERGENCE): 0 | Plant response rating (0 to 100), Giant foxtail (giant foxtail; Rate 31 g/ha, POSTEMERGENCE): 70 | Plant response rating (0 to 100), Giant foxtail (giant foxtail; Rate 31 g/ha, PREEMERGENCE): 60 | Plant response rating, Rape (rape; POSTEMERGENCE): 100 | Plant response rating (0 to 100), Rape (rape; POSTEMERGENCE, Rate 2 g/ha): 30 | Plant response rating, Rape (rape; PREEMERGENCE): 70 | Plant response rating (0 to 100), Rape (rape; PREEMERGENCE, Rate 2 g/ha): 0 | Plant response rating (0 to 100), Rape (rape; Rate 8 g/ha, POSTEMERGENCE): 50 | Plant response rating (0 to 100), Rape (rape; Rate 8 g/ha, PREEMERGENCE): 0 | Plant response rating (0 to 100), Rape (rape; Rate 31 g/ha, POSTEMERGENCE): 70 | Plant response rating (0 to 100), Rape (rape; Rate 31 g/ha, PREEMERGENCE): 10 | Plant response rating (0 to 100), Rice Japonica (rice; POSTEMERGENCE section, flood test, Rate 2 g/ha): 0 | Plant response rating (0 to 100), Rice Japonica (rice; Rate 8 g/ha, under POSTEMERGENCE head (flood test species)): 0 | Plant response rating (0 to 100), Rice Japonica (rice; Rate 31 g/ha, under POSTEMERGENCE head (flood test species)): 0 | Plant response rating Rice Japonica (rice; flood test species listed under POSTEMERGENCE, 125 g/ha, 0 to 100 scale): 50 | Plant response rating Barley Igri (barley; POSTEMERGENCE): 60 | Plant response rating (0 to 100), Barley Igri (barley; POSTEMERGENCE, Rate 2 g/ha): 30 | Plant response rating Barley Igri (barley; PREEMERGENCE): 30 | Plant response rating (0 to 100), Barley Igri (barley; PREEMERGENCE, Rate 2 g/ha): 0 | Plant response rating (0 to 100), Barley Igri (barley; Rate 8 g/ha, POSTEMERGENCE): 40 | Plant response rating (0 to 100), Barley Igri (barley; Rate 8 g/ha, PREEMERGENCE): 0 | Plant response rating (0 to 100), Barley Igri (barley; Rate 31 g/ha, POSTEMERGENCE): 50 | Plant response rating (0 to 100), Barley Igri (barley; Rate 31 g/ha, PREEMERGENCE): 0 | Plant response rating, Soybean (soybean [1]; POSTEMERGENCE, Rate 50 g/ha): 7 | Plant response rating, Soybean (soybean [1]; PREEMERGENCE, Rate 50 g/ha): 0 | Plant response rating (0 to 10 scale), Soybean (soybean [1]; PREEMERGENCE, Rate 200 g/ha): 0 | Plant response rating, Soybean (soybean [1]; Rate 200 g/ha, POSTEMERGENCE): 9 | Plant response rating, Soybean (soybean [2]; POSTEMERGENCE): 85 | Plant response rating (0 to 100), Soybean (soybean [2]; POSTEMERGENCE, Rate 2 g/ha): 50 | Plant response rating, Soybean (soybean [2]; PREEMERGENCE): 0 | Plant response rating (0 to 100), Soybean (soybean [2]; PREEMERGENCE, Rate 2 g/ha): 0 | Plant response rating (0 to 100), Soybean (soybean [2]; Rate 8 g/ha, POSTEMERGENCE): 50 | Plant response rating (0 to 100), Soybean (soybean [2]; Rate 8 g/ha, PREEMERGENCE): 0 | Plant response rating (0 to 100), Soybean (soybean [2]; Rate 31 g/ha, POSTEMERGENCE): 70 | Plant response rating (0 to 100), Soybean (soybean [2]; Rate 31 g/ha, PREEMERGENCE): 0 | Plant response rating, Sorghum (sorghum; POSTEMERGENCE): 85 | Plant response rating (0 to 100), Sorghum (sorghum; POSTEMERGENCE, Rate 2 g/ha): 30 | Plant response rating, Sorghum (sorghum; PREEMERGENCE): 20 | Plant response rating (0 to 100), Sorghum (sorghum; PREEMERGENCE, Rate 2 g/ha): 0 | Plant response rating (0 to 100), Sorghum (sorghum; Rate 8 g/ha, POSTEMERGENCE): 50 | Plant response rating (0 to 100), Sorghum (sorghum; Rate 8 g/ha, PREEMERGENCE): 0 | Plant response rating (0 to 100), Sorghum (sorghum; Rate 31 g/ha, POSTEMERGENCE): 50 | Plant response rating (0 to 100), Sorghum (sorghum; Rate 31 g/ha, PREEMERGENCE): 10
